Reference: ChEMBL document CHEMBL1201862, “PubChem BioAssay data set” (2004)
Active and inactive are the calls of the source. For most assays here, no stated cut-off is given here; in the data, actives have a measured EC50 and inactives only a lower limit.

Columns and labels:
[1] = target: T1, Low molecular weight phosphotyrosine protein phosphatase (Homo sapiens, UniProt P24666); assay type: functional; settings: read-out: IC50_Mean;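 further: Dose-response confirmation assay measuring inhibition of LMPTP enzyme activity by fluorescence intensity read-out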
T1 sequence (P24666 whole entry): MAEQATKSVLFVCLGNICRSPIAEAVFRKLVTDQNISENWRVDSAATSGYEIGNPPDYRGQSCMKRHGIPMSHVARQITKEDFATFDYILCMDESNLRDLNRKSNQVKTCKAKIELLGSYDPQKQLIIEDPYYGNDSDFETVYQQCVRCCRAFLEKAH

[2] = NIH-3T3 fibroblast cytotoxicity, dose response, cytotoxicity control, cell-based, fluorescence, Alamar Blue, secondary assay (AID 2327); assay type: functional;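 further: NIH-3T3 mouse fibroblasts cultured with fluconazole at 8 µg/mL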
[3] = tested on: Streptococcus sp. 'group A'; assay: growth inhibition of control SK(-) GAS strain, dose response, counter-screen for streptokinase expression inhibitor project, luminescence, kanamycin, BacTiterGlo, confirmation (AID 1900); assay type: functional, organism-based
Streptokinase A = target: T2, Streptokinase A (Streptococcus pyogenes serotype M1, UniProt P10520); assay: S. pyogenes streptokinase expression inhibitors, potency, dose response, plasminogen activation absorbance, OD405 (AID 1914); assay type: functional, Streptococcus pyogenes M1 GAS;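 further: secreted streptokinase activity via plasminogen activation per viability signal from cell pellet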
T2 sequence (P10520 whole entry): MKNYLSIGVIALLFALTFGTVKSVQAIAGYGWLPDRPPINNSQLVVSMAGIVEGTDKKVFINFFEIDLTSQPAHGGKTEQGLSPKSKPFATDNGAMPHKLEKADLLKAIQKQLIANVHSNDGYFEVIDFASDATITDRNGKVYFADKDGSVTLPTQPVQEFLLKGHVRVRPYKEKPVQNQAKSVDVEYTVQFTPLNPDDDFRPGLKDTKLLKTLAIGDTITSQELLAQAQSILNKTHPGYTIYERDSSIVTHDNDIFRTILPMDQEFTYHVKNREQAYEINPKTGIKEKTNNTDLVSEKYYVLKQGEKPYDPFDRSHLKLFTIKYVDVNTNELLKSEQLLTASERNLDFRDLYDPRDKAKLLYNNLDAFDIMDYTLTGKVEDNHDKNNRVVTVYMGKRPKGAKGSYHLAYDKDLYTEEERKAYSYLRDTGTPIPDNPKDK

[4] = C. albicans growth with fluconazole, confirmation, fluorescence, retest (AID 2467); assay type: functional, cell-based
[5] = target: T3, Serine/threonine-protein phosphatase (Candida dubliniensis (strain CD36 / CBS 7987 / NCPF 3949 / NRRLY-17841) (Yeast), UniProt B9W6M3); assay: calcineurin pathway inhibitors in yeast reporter, dose response, S. cerevisiae, CDRE-lacZ, luminescence, secondary (AID 2388); assay type: functional, cell-based;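 further: yeast reporter cells carrying a calcineurin-responsive lacZ construct stimulated with calcium chloride; luminescent beta-galactosidase reporter signal in whole cells rather than isolated phosphatase activity; potency for inhibition where a drop in reporter signal means calcineurin blockade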
T3 sequence (B9W6M3 whole entry): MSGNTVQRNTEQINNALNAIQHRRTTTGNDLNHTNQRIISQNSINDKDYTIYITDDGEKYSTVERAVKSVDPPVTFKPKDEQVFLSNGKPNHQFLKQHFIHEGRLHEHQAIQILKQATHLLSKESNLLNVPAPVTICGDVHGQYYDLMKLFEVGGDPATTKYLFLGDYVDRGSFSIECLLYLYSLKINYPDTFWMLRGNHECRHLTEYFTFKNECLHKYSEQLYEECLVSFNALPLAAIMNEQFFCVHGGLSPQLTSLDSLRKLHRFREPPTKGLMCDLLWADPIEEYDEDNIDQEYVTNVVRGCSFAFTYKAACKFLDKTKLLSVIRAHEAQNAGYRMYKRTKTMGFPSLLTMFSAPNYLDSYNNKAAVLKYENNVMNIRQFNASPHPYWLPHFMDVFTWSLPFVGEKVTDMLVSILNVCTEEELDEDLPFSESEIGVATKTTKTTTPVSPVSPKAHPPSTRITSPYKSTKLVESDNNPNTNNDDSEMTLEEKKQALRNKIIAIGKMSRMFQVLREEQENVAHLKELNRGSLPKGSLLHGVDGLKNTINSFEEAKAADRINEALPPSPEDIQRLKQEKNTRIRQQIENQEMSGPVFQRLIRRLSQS

Streptococcus = assay: Group A Streptococcus viability loss, dose response, counter-screen for streptokinase expression inhibitor project, luminescence, BacTiterGlo (AID 1915); assay type: functional, organism-based;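 further: potency for reduction of bacterial viability or growth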
[6] = target: ATP-dependent molecular chaperone HSP82 (Candida albicans (strain WO-1) (Yeast), UniProt C4YTQ8); assay: loss of DOC-induced GRE-beta-galactosidase reporter signal, dose response, Hsp90 inhibitor project, S. cerevisiae, luminescence (AID 2400); assay type: functional, cell-based;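 further: beta-galactosidase luminescence from glucocorticoid response element reporter as proxy for Hsp90 function; inhibitor potency where signal loss means Hsp90 inhibition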
[7] = target: T4, Apoptotic protease-activating factor 1 (Homo sapiens, UniProt O14727); assay: SAR analysis of small molecule Activators of Apaf-1 in a Fluorescent assay.; assay type: functional; settings: read-out: EC50_Mean;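 further: caspase-3 cleavage of fluorogenic Rh110 DEVD substrate downstream of apoptosome activation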
T4 sequence (O14727 whole entry): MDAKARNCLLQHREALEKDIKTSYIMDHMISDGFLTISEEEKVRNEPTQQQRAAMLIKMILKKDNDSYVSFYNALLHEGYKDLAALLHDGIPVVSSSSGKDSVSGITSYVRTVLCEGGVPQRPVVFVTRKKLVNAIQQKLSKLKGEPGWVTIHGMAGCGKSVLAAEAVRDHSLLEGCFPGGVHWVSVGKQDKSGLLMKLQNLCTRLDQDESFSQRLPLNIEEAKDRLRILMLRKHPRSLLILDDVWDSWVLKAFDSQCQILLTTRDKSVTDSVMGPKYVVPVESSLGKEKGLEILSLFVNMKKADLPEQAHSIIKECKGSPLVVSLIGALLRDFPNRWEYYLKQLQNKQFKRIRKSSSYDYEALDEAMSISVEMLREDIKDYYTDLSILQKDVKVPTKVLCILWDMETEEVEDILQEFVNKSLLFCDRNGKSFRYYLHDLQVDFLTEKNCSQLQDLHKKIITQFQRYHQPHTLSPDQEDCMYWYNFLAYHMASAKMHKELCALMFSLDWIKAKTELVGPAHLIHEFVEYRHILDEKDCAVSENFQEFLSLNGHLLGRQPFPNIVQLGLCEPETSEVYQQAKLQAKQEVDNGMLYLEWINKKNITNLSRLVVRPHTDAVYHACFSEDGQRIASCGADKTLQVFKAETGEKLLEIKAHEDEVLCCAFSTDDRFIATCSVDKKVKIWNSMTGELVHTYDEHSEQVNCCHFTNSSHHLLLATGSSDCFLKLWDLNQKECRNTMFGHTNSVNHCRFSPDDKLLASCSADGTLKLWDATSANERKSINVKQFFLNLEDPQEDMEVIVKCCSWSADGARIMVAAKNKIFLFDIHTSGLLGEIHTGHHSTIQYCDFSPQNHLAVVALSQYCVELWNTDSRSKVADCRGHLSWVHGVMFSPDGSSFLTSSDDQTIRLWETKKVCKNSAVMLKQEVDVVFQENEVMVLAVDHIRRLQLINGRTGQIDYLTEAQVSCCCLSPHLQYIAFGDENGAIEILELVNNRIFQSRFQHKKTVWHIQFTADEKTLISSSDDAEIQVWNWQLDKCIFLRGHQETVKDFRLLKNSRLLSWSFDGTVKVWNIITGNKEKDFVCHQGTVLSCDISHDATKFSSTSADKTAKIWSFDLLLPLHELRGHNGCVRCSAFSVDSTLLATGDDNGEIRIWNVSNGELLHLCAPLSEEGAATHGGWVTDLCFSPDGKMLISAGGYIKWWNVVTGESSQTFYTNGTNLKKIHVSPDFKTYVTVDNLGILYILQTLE

[8] = inhibitors of HIV Env-driven cell fusion, dose response, cherry-pick (AID 652057); assay type: functional, cell-based
[9] = CEM21 lymphoblast cell cytotoxicity, dose response, cytotoxicity control for viral fusion inhibitor project, CellTiter-Glo luminescence, cherry-picked (AID 652042); assay type: functional, cell-based;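 further: potency for signal decrease meaning cytotoxicity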
[10] = ZM109 Env clade C HIV-1 fusion inhibitors, dose response, HeLa effector, CEM target cells, luciferase, cherry-pick (AID 652058); assay type: functional, cell-based
[11] = off-target signal loss in HeLa-CEM21 co-culture – HeLa F-luc CTL cells, cherry-picked, counter-screen for HIV-1 Env fusion inhibitor project, dose response (AID 652040); assay type: functional, cell-based;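 further: potency for signal decrease marking cytotoxic or nonspecific inhibition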
[12] = inhibitors of clade B AD8 Env fusion, dose response, cell-based, cherry-pick (AID 652062); assay type: functional;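 further: luciferase signal from cell-cell fusion driven by HIV-1 clade B AD8 Env; potency is for inhibitors of fusion seen as a drop in luminescence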
cells [13] = assay type: functional, cell-based
cells [14] = assay type: functional, cell-based; remark: listed apart in the source
[15] = target: T5, Corticotropin-releasing factor receptor 2/Corticotropin-releasing factor-binding protein (Homo sapiens, UniProt P24387+Q13324); assay: activators of CRF receptor 2 with binding protein – uHTS hits, confirmation (AID 602473); assay type: functional; settings: read-out: EC50_Mean
T5 sequence (Q13324 whole entry): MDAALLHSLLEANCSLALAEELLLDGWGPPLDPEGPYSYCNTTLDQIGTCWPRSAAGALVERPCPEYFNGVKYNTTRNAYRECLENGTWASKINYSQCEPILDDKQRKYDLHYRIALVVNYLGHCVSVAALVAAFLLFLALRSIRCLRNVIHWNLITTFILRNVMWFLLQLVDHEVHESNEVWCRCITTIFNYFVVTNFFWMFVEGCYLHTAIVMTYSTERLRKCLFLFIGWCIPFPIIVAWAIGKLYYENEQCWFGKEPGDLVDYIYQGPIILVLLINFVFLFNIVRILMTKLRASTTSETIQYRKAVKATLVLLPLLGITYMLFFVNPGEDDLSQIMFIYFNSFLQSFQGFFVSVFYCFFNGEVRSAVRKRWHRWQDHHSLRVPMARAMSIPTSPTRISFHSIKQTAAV
T5 sequence (P24387 whole entry): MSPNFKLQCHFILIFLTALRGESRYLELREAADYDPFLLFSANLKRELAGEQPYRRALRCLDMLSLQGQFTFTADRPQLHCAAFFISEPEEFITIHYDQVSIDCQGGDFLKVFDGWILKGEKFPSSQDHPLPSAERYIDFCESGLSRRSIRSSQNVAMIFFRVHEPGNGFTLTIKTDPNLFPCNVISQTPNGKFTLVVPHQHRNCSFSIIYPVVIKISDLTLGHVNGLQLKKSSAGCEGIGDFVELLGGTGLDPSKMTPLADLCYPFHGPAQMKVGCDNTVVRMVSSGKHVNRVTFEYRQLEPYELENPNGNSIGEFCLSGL

Sequence of ATP-dependent molecular chaperone HSP82 (C4YTQ8 whole entry): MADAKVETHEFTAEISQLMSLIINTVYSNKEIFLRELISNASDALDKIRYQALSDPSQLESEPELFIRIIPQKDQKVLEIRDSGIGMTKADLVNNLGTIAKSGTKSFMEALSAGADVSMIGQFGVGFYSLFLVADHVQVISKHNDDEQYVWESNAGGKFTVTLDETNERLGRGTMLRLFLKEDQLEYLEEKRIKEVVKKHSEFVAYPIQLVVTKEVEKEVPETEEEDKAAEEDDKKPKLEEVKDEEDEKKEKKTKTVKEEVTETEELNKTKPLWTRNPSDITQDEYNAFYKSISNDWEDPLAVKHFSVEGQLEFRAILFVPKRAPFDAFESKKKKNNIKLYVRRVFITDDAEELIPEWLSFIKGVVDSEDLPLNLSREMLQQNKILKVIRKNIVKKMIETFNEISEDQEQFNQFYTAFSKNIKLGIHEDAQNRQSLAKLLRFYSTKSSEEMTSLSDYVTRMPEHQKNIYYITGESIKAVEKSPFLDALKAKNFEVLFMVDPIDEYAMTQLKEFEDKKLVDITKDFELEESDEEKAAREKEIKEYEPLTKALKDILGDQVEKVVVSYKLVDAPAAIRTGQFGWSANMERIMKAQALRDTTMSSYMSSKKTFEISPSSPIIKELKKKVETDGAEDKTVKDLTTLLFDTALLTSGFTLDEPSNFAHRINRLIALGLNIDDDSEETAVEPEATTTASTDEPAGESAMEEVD

With `O=C(NCCN1CCCC1)c1ccc(Cn2c(=S)[nH]c3cc4c(cc3c2=O)OCO4)cc1` the IC50 [1] was 27.2 µM (inactive).
In the case of `O=C(Nc1nnc(-c2ccncc2)o1)c1ccc2ccccc2c1`, the EC50 [2] was > 150 µM (inactive), the EC50 [3] was 6.52 µM (active) and the EC50 (Streptokinase A) was > 150 µM (not active). The EC50 [4] was 1.47 µM (active), the EC50 [5] was > 180 µM (inactive) and the EC50 (Streptococcus) was 19.5 µM (active). For the same compound, the EC50 [6] was > 150 µM (inactive).
In the case of `COC(=O)c1coc(-c2cnc(OC)nc2)n1`, the EC50 [7] was > 100 µM (inactive).
In the case of `COC(=O)[C@]12C[C@H](CC(=O)NCc3ccc(C)o3)C(=O)N(CCC3=CCCCC3)C1=C[C@H](C(C)(C)C)O[C@@H]2C`, the AC50 [8] was 1.28 µM (active), the AC50 [9] was 20.3 µM (active) and the AC50 [10] was < 0.26 µM (active). The AC50 [11] was 1.71 µM (active) and the AC50 [12] was 2.73 µM (active).
In the case of `O=C(c1nc2ccccn2c1CNCC1OCCc2ccccc21)N1CCOCC1` (stereo unspecified), the IC50 (cells [13]) was > 29.9 µM (inactive) and the EC50 (cells [14]) was > 29.9 µM (inactive).
In the case of `CCOC(=O)Cc1csc(NC(=O)CSc2nnc(-c3ccncc3)o2)n1`, the EC50 [2] was > 150 µM (inactive), the EC50 [4] was 0.517 µM (active) and the EC50 [5] was > 180 µM (inactive). The EC50 [6] was > 150 µM (inactive) and the EC50 [15] was > 53 µM (inactive).
